Data taken from patent US20260070891A1, “METHOD FOR PRODUCING QUINOXALINE DERIVATIVE” (Kyowa Kirin Co., Ltd., priority 2022, published 2026).

Tests used:
[1] = Crystal form stability on standing at room temperature, rechecked by powder X-ray diffraction (Test Example 1); format: physicochemical; conditions: allowed to stand for 8 weeks at room temperature
Method: In addition, the measurement of powder X-ray diffraction (reflection method) was performed by pulverizing a sample in an agate mortar, taking an appropriate amount of the sample into a sample plate, and measuring a diffraction peak such that a diffraction angle 20 includes a range of 5° to 40°. The X-ray to be radiated was a copper Ka ray (CuKα ray), and the tube voltage was set to 50 kV, the tube current was set to 1 mA, and the step time was set to 120 seconds. The thermal analysis was performed by taking 2 mg of the sample into an aluminum pan and measuring differential scanning calorimetry (DSC) under a condition of a heating rate of 5° C./min. For the measurement of powder X-ray diffraction (reflection method), D8 DISCOVER manufactured by Bruker AXS was used.
The type II crystal of (R)—N-(3-{2,2,2-trifluoro-1-[6-(2-methyl-2H-1,2,3-triazol-4-yl)pyridin-3-yl]ethoxy}quinoxalin-2-yl) propane-1-sulfonamide obtained in step 3 of Example 1 was allowed to stand for 8 weeks at room temperature.

[2] = Long-term storage stability of crystal at 25° C. and 60% RH (Test Example 1); format: physicochemical; conditions: 25° C. and 60% RH for 5 years

| Compound | crystal form after standing (powder X-ray diffraction) [1] | stability (properties, related substances, optical isomers, content, powder X-ray diffraction pattern) [2] |
| --- | --- | --- |
| CCCS(=O)(=O)Nc1nc2ccccc2nc1O[C@H](c1ccc(-c2cnn(C)n2)nc1)C(F)(F)F [type II crystal, (R)—N-(3-{2,2,2-trifluoro-1-[6-(2-methyl-2H-1,2,3-triazol-4-yl)pyridin-3-yl]ethoxy}quinoxalin-2-yl) propane-1-sulfonamide] | transition to a mixed crystal of the type III crystal and the type II crystal |  |
| CCCS(=O)(=O)Nc1nc2ccccc2nc1O[C@H](c1ccc(-c2cnn(C)n2)nc1)C(F)(F)F [type III crystal, (R)—N-(3-{2,2,2-trifluoro-1-[6-(2-methyl-2H-1,2,3-triazol-4-yl)pyridin-3-yl]ethoxy}quinoxalin-2-yl)propane-1-sulfonamide] |  | no changes in the properties, related substances, optical isomers, content, or powder X-ray diffraction pattern |
